The values that follow come from publication PMC3849192, “A Simple Method for Assessing Free Brain/Free Plasma Ratios Using an In Vitro Model of the Blood Brain Barrier” (PLoS ONE, 2013).

Data set [1] can be described thus: Fraction unbound brain (fu,br), brain slice method. As for the experimental part:
Rats (male Sprague-Dawley) were decapitated under isoflurane anesthesia and the brains were removed carefully and immersed in ice-cold oxygenated physiological buffer at pH7.4. A 6 mm coronal section was cut with a razor and mounted with cyanoacrylate glue onto the tray of the microslicer (DTK-Zero 1 Microslicer, Dosak) after which six to eight 300 µm coronal slices from striatal areas were prepared. […] The compounds were dissolved at 1 µM in the buffer and the solution was incubated with the slice for 5 h.
After 5 h, the brain slices were weighed and homogenized in 9 volumes (w/v) of ECF buffer with a sonicator (SONICS VCX 500 and VCX 130). The slice homogenates in ECF buffer were stored at −20°C prior to analysis. The concentrations of the test compound in the brain slice homogenate and in the ECF buffer was determined by LC-MS/MS.
The unbound volume of distribution Vu,brain, or free fraction fu,brain was calculated according to the following equations: [drawing 1] [drawing 2] where Cslice, CECF and V0 are amount of drug in the slice, the drug concentration in the ECF (representing the drug concentration in the brain ECF, i.e. the free concentration), and the water adhesion of the brain slice. V0 has been estimated using ^14C -inulin in a separate experiment in which brain slices were incubated for 1, 2, and 4 min. V0 was obtained from brain slice uptake – inulin time profile (apparent zero-time intercept).

Data set [2] can be described thus: Fraction unbound brain (fu,br), brain homogenate equilibrium dialysis. As for the experimental part:
The degree of brain binding was assessed by equilibrium dialysis. Brain homogenate (10%) was spiked with test compound at 1 µM in triplicate. […] The plate was then placed in a shaker/incubator to equilibrate for 18 hrs at 37°C. […] After the addition of 50 µl of buffer to the brain homogenate samples, 150 µl of acetonitrile was added to each sample. Finally, 50 µl of water was added to all buffer and brain homogenate samples. The plates were centrifuged and the supernatant analyzed by LC-MS/MS.
(Equilibrium dialysis compares concentrations on both sides of a semipermeable membrane.)

Data set [3] concerns in vitro BBB model (co-culture of bovine brain capillary endothelial cells and rat glial cells). The experiment in a line: In vitro BBB co-culture model, Cu,br/Cu,pl ratio. Here is the method:
Figure 1 Schematic diagram of the experimental protocol. After 12 days of coculture in cell culture medium, both compartments of the in vitro BBB model consisting of a coculture of brain capillary endothlial cells and rat primary glial cells were filled with Hepes-buffered Ringer’s solution and the compounds dissolved at 2 µM were added in the luminal compartment (i.e donor). The presence of glial cells in the abluminal compartment was used to reproduce the non specific binding to brain tisssue within the brain prenchyma in vivo. After 1 hour, aliquots were taken from both compartments. In vitro Cu,br/Cu,pl at 1 h were calculated by dividing the concentration in the abluminal compartment (∼Cu,br) by the concentration in the luminal compartment (∼Cu,pl) at 1 h. The experimental data at 1 h were computed using the blue-norna steady-state calculator to generate the in vitro steady-state Cu,br/Cu,pl.
One hour after the addition of compounds dissolved at 2 µM in the luminal (i.e upper) compartment, aliquots were taken from both compartments previously filled with Hepes-buffered Ringer’s solution at the beginning of the experiment. […] The concentrations in both compartments of the in vitro assay after 1 h were computed using […] blue-norna.com to generate the in vitro steady-state Cu,br/Cu,pl.
The method of Dehouck et al. was used with minor modifications (Fig. 1). Bovine brain endothelial cells isolated from capillary fragments were cocultured with primary mixed glial cells from newborn Sprague–Dawley rats. The glial cells were isolated according to the method of Booher and Sensenbrenner and cultured for 3 weeks, plated on the bottom of cell culture clusters containing six wells each. The endothelial cells were seeded onto collagen-coated polycarbonate cell culture inserts (4.7 cm^2) (Corning Incorp. NY, USA), which were placed in the wells containing glial cells. The medium used for the coculture was Dulbecco’s modified Eagle’s medium supplemented with 10% calf serum, 10% horse serum, 2 mmol/L glutamine, 50 mg/L gentamicin and 1 µg/L basic fibroblast growth factor (Sigma). The medium was changed every second day. Experiments were usually initiated after 12 days of co-culture.
To monitor the integrity of the endothelial cell monolayer, the marker molecule [^14C] sucrose was added to the solution at a concentration of 0.05 µCi/ml. At the start of the transport experiments, buffered Ringer’s solution (pH = 7.4) was added to wells with glial cells. Inserts with brain endothelial cells were placed in these wells and drug solutions at 2 µM were added to the donor compartment. The plates were incubated for 1 h in a polymix shaker at 37°C with a low shaking velocity. Aliquots were taken from the donor compartment in the beginning and at the end of the experiments. The receiver compartments were sampled at the end of the experiments.
The amount of radiotracer in the abluminal compartment was measured in a liquid scintillation analyser (Packard Instrument Company, Meriden, USA). […] The concentrations of the test compound in all samples were analysed by MS/MS.
The mean free brain/plasma ratios were calculated from three individual experiments. One hour ratios were calculated by dividing the drug concentration in the receiver compartment by the free drug concentration in the donor compartment after 1 h. The experimental data at one hour (i.e concentration in both compartment at the beginning of the experiment and after 1 h) were computed using the blue-norna® steady-state calculator (www.blue-norna.com) to predict the in vivo steady-state Cu,br/Cu,pl ratios. For further details on this calculation method see file S1.
The in vivo steady-state Cu,br/Cu,pl were predicted from the in vitro experimental data collected after one hour according to the following equation: […]
Cdonor, t and Creceiver, t are the concentration of drug in the donor and receiver chambers at time t.

Setting [4] is: rat brain slices 300 µm, 1 µM, 5 h incubation.
Where [5] appears, read: brain homogenate (10%), 1 µM, equilibrium dialysis 18 hrs at 37°C.
The mark [6] stands for this setting: 2 µM in luminal compartment, abluminal/luminal concentration at 1 h.
Where [7] appears, read: steady-state ratio computed from 1 h data with the blue-norna steady-state calculator.

Where two headings read alike, the source gives them in different places.

Take `CCCC(C)(COC(N)=O)COC(=O)NC(C)C` (stereo not drawn) [Carisoprodol]: in data set [1] (setting [4]), the “fubrain (slice) Mean” value was found to be 0.5600. The “fubrain (homog.) Mean” value in data set [2] (setting [5]) is listed as 0.2020. Further, the “In vitro Cu,br/Cu,pl Mean 1 h” value in data set [3] (setting [6]) came out at 0.31. Moreover, the “In vitro Cu,br/Cu,pl Mean steady-state” value in data set [3] (setting [7]) is reported as 0.61.
As for `NCC(CC(=O)O)c1ccc(Cl)cc1` (stereo not drawn) [Baclofen], the “fubrain (slice) Mean” value in data set [1] (setting [4]) stood at 0.5800. In data set [2] (setting [5]), the “fubrain (homog.) Mean” value is listed as 0.5000. For the same compound, the “In vitro Cu,br/Cu,pl Mean 1 h” value in data set [3] (setting [6]) is recorded as 0.05. In addition, in data set [3] (setting [7]), the “In vitro Cu,br/Cu,pl Mean steady-state” value is reported as 0.06.
On to `CNS(=O)(=O)Cc1ccc2[nH]cc(CCN(C)C)c2c1` [Sumatriptan], for which the “fubrain (slice) Mean” value in data set [1] (setting [4]) came to 0.6100. In data set [2] (setting [5]), the “fubrain (homog.) Mean” value stood at 0.4000. For the same compound, in data set [3] (setting [6]), the “In vitro Cu,br/Cu,pl Mean 1 h” value is 0.05. Besides, in data set [3] (setting [7]), the “In vitro Cu,br/Cu,pl Mean steady-state” value is given as 0.05.
On to `Nc1c2c(nc3ccccc13)CCCC2` [Tacrine], for which, in data set [1] (male, Sprague-Dawley, rat, 5 h, 1 µM), the “fubrain (slice) Mean” value came to 0.1200. Further, the “fubrain (homog.) Mean” value in data set [2] (18 h, 1 µM) turned out to be 0.1200. Further, the “In vitro Cu,br/Cu,pl Mean steady-state” value in data set [3] (bovine / rat, 2 µM, pH 7.4) is 0.58. Further, in data set [3] (bovine / rat, 1 h, 2 µM, pH 7.4), the “In vitro Cu,br/Cu,pl Mean 1 h” value is 0.23.
With `O=C(CCCN1CCC(O)(c2ccc(Cl)cc2)CC1)c1ccc(F)cc1` [Haloperidol], in data set [1] (setting [4]), the “fubrain (slice) Mean” value is reported as 0.0140. Further, in data set [2] (setting [5]), the “fubrain (homog.) Mean” value was determined as 0.0071. The “In vitro Cu,br/Cu,pl Mean 1 h” value in data set [3] (setting [6]) turned out to be 0.09. In addition, the “In vitro Cu,br/Cu,pl Mean steady-state” value in data set [3] (setting [7]) was 0.70.
Turning to `CN(C)CCC=C1c2ccccc2CCc2ccccc21` [Amitriptyline], the “fubrain (slice) Mean” value in data set [1] (setting [4]) is on record as 0.0060. In data set [2] (setting [5]), the “fubrain (homog.) Mean” value stood at 0.0090. Also, the “In vitro Cu,br/Cu,pl Mean 1 h” value in data set [3] (setting [6]) was found to be 0.07. Further, the “In vitro Cu,br/Cu,pl Mean steady-state” value in data set [3] (setting [7]) is reported as 0.59.
Taken in the same sequence, the figures for `Nc1nnc(-c2cccc(Cl)c2Cl)c(N)n1` [Lamotrigine] were 0.3600, 0.2000, 0.27 and 0.43.
Take `O=C1NC(=O)C(c2ccccc2)(c2ccccc2)N1` [Phenytoin]: the “fubrain (slice) Mean” value in data set [1] (setting [4]) is reported as 0.1200. The “fubrain (homog.) Mean” value in data set [2] (setting [5]) amounted to 0.0800. For the same compound, in data set [3] (setting [6]), the “In vitro Cu,br/Cu,pl Mean 1 h” value came to 0.22. Further, in data set [3] (setting [7]), the “In vitro Cu,br/Cu,pl Mean steady-state” value is given as 0.44.
With `CC(C)(C)NC(=O)[C@@H]1CN(Cc2cccnc2)CCN1C[C@@H](O)C[C@@H](Cc1ccccc1)C(=O)N[C@H]1c2ccccc2C[C@H]1O` [Indinavir], in data set [3] (setting [6]), the “In vitro Cu,br/Cu,pl Mean 1 h” value is reported as 0.04. Moreover, the “In vitro Cu,br/Cu,pl Mean steady-state” value in data set [3] (setting [7]) was 0.10.
Regarding `CCN1CCCC1CNC(=O)c1cc(S(N)(=O)=O)ccc1OC` (stereo not drawn) [Sulpiride], the “fubrain (slice) Mean” value in data set [1] (setting [4]) is 0.4400. In addition, in data set [2] (setting [5]), the “fubrain (homog.) Mean” value came out at 0.6000. In data set [3] (setting [6]), the “In vitro Cu,br/Cu,pl Mean 1 h” value stood at 0.05. For the same compound, the “In vitro Cu,br/Cu,pl Mean steady-state” value in data set [3] (setting [7]) is given as 0.09.
As to `Cc1ccc(-c2nc3ccc(C)cn3c2CC(=O)N(C)C)cc1` [Zolpidem], the “fubrain (slice) Mean” value in data set [1] (male, Sprague-Dawley, rat) was determined as 0.3500. The “fubrain (homog.) Mean” value in data set [2] is on record as 0.2000. Besides, the “In vitro Cu,br/Cu,pl Mean 1 h” value in data set [3] (setting [6]) is recorded as 0.25. Further, the “In vitro Cu,br/Cu,pl Mean steady-state” value in data set [3] (setting [7]) was 0.49.
Regarding `NCC1(CC(=O)O)CCCCC1` [Gabapentin], the “fubrain (slice) Mean” value in data set [1] (setting [4]) amounted to 0.2400. For the same compound, the “fubrain (homog.) Mean” value in data set [2] (setting [5]) stood at 0.7820. The “In vitro Cu,br/Cu,pl Mean 1 h” value in data set [3] (setting [6]) is 0.06. Besides, the “In vitro Cu,br/Cu,pl Mean steady-state” value in data set [3] (setting [7]) is recorded as 0.14.
In the case of `CSc1ccc2c(c1)N(CCC1CCCCN1C)c1ccccc1S2` (stereo not drawn) [Thioridazine], in data set [1] (setting [4]), the “fubrain (slice) Mean” value was 0.0017. Further, the “fubrain (homog.) Mean” value in data set [2] (setting [5]) came out at 0.0010. Besides, the “In vitro Cu,br/Cu,pl Mean 1 h” value in data set [3] (setting [6]) is 0.08. Further, the “In vitro Cu,br/Cu,pl Mean steady-state” value in data set [3] (setting [7]) is recorded as 0.68.
Taken in the same sequence, the figures for `CNCCC(Oc1ccc(C(F)(F)F)cc1)c1ccccc1` (stereo not drawn) [Fluoxetine] were 0.0027, 0.0023, 0.10 and 0.96.
In the case of `CNCCC=C1c2ccccc2CCc2ccccc21` [Nortriptyline], the “fubrain (slice) Mean” value in data set [1] (setting [4]) worked out at 0.0045. The “fubrain (homog.) Mean” value in data set [2] (setting [5]) was 0.0046. Also, the “In vitro Cu,br/Cu,pl Mean 1 h” value in data set [3] (setting [6]) turned out to be 0.08. Also, in data set [3] (setting [7]), the “In vitro Cu,br/Cu,pl Mean steady-state” value is listed as 0.81.
Consider `OCCOCCN1CCN(C(c2ccccc2)c2ccc(Cl)cc2)CC1` (stereo not drawn) [Hydroxyzine], for which the “fubrain (slice) Mean” value in data set [1] (setting [4]) worked out at 0.0170. Further, the “fubrain (homog.) Mean” value in data set [2] (setting [5]) stood at 0.0100. For the same compound, the “In vitro Cu,br/Cu,pl Mean 1 h” value in data set [3] (setting [6]) is 0.05. For the same compound, the “In vitro Cu,br/Cu,pl Mean steady-state” value in data set [3] (setting [7]) was 0.47.
Consider `Cn1c(=O)c2c(ncn2C)n(C)c1=O` [Caffeine], for which, in data set [1] (setting [4]), the “fubrain (slice) Mean” value was 0.7100. Besides, in data set [2] (setting [5]), the “fubrain (homog.) Mean” value is 0.5000. Also, in data set [3] (setting [6]), the “In vitro Cu,br/Cu,pl Mean 1 h” value was 0.34. The “In vitro Cu,br/Cu,pl Mean steady-state” value in data set [3] (setting [7]) is 0.55.
The like results for `CN(C)CCCN1c2ccccc2Sc2ccc(Cl)cc21` [Chlorpromazine] were, in that order, 0.0032, 0.0008, 0.06 and 0.69.
The like results for `CN1CCN(CCCN2c3ccccc3Sc3ccc(C(F)(F)F)cc32)CC1` [Trifluoperazine] were, in that order, 0.0007, 0.0007, 0.09 and 0.71.
Take `NC(=O)N1c2ccccc2C=Cc2ccccc21` [Carbamazepine]: the “fubrain (slice) Mean” value in data set [1] (setting [4]) turned out to be 0.2000. Further, the “fubrain (homog.) Mean” value in data set [2] (setting [5]) was 0.1160. Further, the “In vitro Cu,br/Cu,pl Mean 1 h” value in data set [3] (setting [6]) is listed as 0.25. For the same compound, the “In vitro Cu,br/Cu,pl Mean steady-state” value in data set [3] (setting [7]) is recorded as 0.31.
